Measured values as given in PMC12951562, “SH2scan: Mapping SH2 Domain-Ligand Binding Selectivity for Inhibitors and Degraders” (Journal of Medicinal Chemistry, 2026).
Non-standard residues stand in square brackets, D forms with d. Residues, ends and D or L forms follow the SMILES beside them. pY = N[C@@H](Cc1ccc(OP(=O)(O)O)cc1)C(=O)O

Assays:
Assay in all cases: biochemical
Format in all cases: binding
CSK = molecular target: T1, CSK (Homo sapiens, UniProt P41240)
T1 construct: the DNA-tagged SH2 domain concentrations used in this study were <0.1 nM; made in house; host or cells: HEK293 (transient transfection; unpurified extract)
T1 sequence (P41240 82-171 limits assumed): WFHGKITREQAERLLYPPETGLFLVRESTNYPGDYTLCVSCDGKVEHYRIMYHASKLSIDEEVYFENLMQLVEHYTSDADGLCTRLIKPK

ABL2 = molecular target: T2, ABL2 (Homo sapiens, UniProt P42684)
T2 construct: the DNA-tagged SH2 domain concentrations used in this study were <0.1 nM; made in house; host or cells: HEK293 (transient transfection; unpurified extract)
T2 sequence (P42684 173-263 limits assumed): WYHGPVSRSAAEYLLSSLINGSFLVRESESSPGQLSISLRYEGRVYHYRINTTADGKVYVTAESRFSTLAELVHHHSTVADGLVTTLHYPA

HSH2D = molecular target: T3, HSH2D (Homo sapiens, UniProt Q96JZ2)
T3 construct: the DNA-tagged SH2 domain concentrations used in this study were <0.1 nM; made in house; host or cells: HEK293 (transient transfection, unpurified extract)
T3 sequence (Q96JZ2 34-125 limits assumed): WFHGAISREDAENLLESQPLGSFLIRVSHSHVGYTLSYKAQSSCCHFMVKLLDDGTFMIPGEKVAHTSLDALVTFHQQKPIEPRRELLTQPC

GADS = molecular target: T4, GADS (Homo sapiens, UniProt O75791)
T4 construct: the DNA-tagged SH2 domain concentrations used in this study were <0.1 nM; made in house; host or cells: HEK293 (transient transfection; unpurified extract)
T4 sequence (O75791 58-149 limits assumed): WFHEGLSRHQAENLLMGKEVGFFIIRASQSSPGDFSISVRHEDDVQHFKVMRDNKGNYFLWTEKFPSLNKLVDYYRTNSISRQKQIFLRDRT

FES = molecular target: T5, FES (Homo sapiens, UniProt P07332)
T5 construct: the DNA-tagged SH2 domain concentrations used in this study were <0.1 nM; made in house; host or cells: HEK293 (transient transfection; unpurified extract)
T5 sequence (P07332 460-549 limits assumed): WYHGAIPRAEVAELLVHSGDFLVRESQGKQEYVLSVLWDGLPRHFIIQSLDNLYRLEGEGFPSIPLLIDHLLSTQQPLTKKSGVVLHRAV

FRK = molecular target: T6, FRK (Homo sapiens, UniProt P42685); conditions: dose-response; read-out: KD
T6 construct: the DNA-tagged SH2 domain concentrations used in this study were <0.1 nM; made in house; host or cells: HEK293 (transient transfection; unpurified extract)
T6 sequence (P42685 116-208 limits assumed): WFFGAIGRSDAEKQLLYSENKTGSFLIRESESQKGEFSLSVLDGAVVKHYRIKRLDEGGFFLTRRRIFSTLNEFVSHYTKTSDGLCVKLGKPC

CC[C@H](C)[C@H](NC(C)=O)C(=O)N[C@@H](CO)C(=O)N[C@@H](C)C(=O)N[C@@H](CCSC)C(=O)N[C@@H](Cc1ccc(OP(=O)(O)O)cc1)C(=O)N[C@@H](CO)C(=O)N[C@@H](CO)C(=O)N[C@H](C(=O)N[C@@H](CCSC)C(=O)N[C@@H](CCCCN)C(N)=O)C(C)C [Ac-ISAMpYSSVMK-NH2] (Ac-ISAM[pY]SSVMK-NH2) was tested, and the Kd (CSK) was 48.3 ± 8.04 nM.

Compound CC[C@H](C)[C@H](NC(=O)[C@@H]1CCCN1C(=O)[C@H](CO)NC(=O)[C@H](CO)NC(C)=O)C(=O)N[C@@H](Cc1ccc(OP(=O)(O)O)cc1)C(=O)N[C@@H](CCC(=O)O)C(=O)N[C@@H](CC(=O)O)C(=O)N[C@@H](C)C(=O)N[C@@H](C)C(N)=O [Ac-SSPIpYEDAA-NH2] (Ac-SSPI[pY]EDAA-NH2) has a Kd (ABL2) of 6200 ± 584 nM.

CSCC[C@H](NC(=O)[C@H](Cc1ccc(OP(=O)(O)O)cc1)NC(=O)[C@H](CC(=O)O)NC(=O)[C@H](CO)NC(C)=O)C(=O)N[C@@H](CC(N)=O)C(=O)N[C@@H](CCSC)C(=O)N[C@H](C(=O)N1CCC[C@H]1C(=O)N[C@@H](CCCNC(=N)N)C(=O)N[C@@H](CCCNC(=N)N)C(=O)N1CCC[C@H]1C(N)=O)[C@@H](C)O (Ac-SD[pY]MNMTPRRP-NH2) was tested, and the Kd (HSH2D) was 873 ± 159 nM and the Kd (GADS) was 244 ± 73.3 nM.

CC(=O)N[C@H](C(=O)N[C@@H](Cc1ccc(OP(=O)(O)O)cc1)C(=O)N[C@@H](CCC(=O)O)C(=O)N1CCC[C@H]1C(=O)N[C@H](C(=O)N[C@@H](CO)C(=O)N[C@@H](Cc1ccc(O)cc1)C(N)=O)C(C)C)C(C)C [Ac-VpYEPVSY-NH2] (Ac-V[pY]EPVSY-NH2) gave a Kd (FES) of 711 ± 170 nM.

For CC[C@H](C)[C@H](NC(=O)[C@@H]1CCCN1C(=O)[C@@H](NC(=O)[C@H](CCC(=O)O)NC(=O)[C@H](CCC(=O)O)NC(=O)[C@H](Cc1ccc(OP(=O)(O)O)cc1)NC(=O)[C@H](CCC(N)=O)NC(=O)[C@@H]1CCCN1C(=O)[C@H](CCC(=O)O)NC(C)=O)[C@@H](C)CC)C(=O)N[C@@H](CCCCN)C(=O)N[C@@H](CCC(N)=O)C(N)=O (Ac-EPQ[pY]EEIPIKQ-NH2), the Kd (FRK) was 6980 ± 1930 nM.
